In US20250195536A1, “BICYCLOOCTANE KRAS INHIBITORS” (Incyte Corporation, priority 2023, published 2025):

What was measured:
[1] = Caco2 assay (permeability, Papp A-B); format: in vitro ADME; details: human, Caco-2, absorptive direction (A-B), 50 μM test compound, 4% BSA in receiver
Method: Caco-2 cells are grown at 37° C. in an atmosphere of 5% CO2 in DMEM growth medium supplemented with 10% (v/v) fetal bovine serum, 1% (v/v) nonessential amino acids, penicillin (100 U/mL), and streptomycin (100 μg/mL). Confluent cell monolayers are subcultured every 7 days or 4 days for Caco-2 by treatment with 0.05% trypsin containing […]. Caco-2 cells are seeded in 96-well Transwell plates. The seeding density for Caco-2 cells is 14,000 cells/well. DMEM growth medium is replaced every other day after seeding. Cell monolayers are used for transport assays between 22 and 25 days for Caco-2 cells.
Cell culture medium is removed and replaced with HBSS. To measure the TEER, the HBSS is added into the donor compartment (apical side) and receiver compartment (basolateral side). The TEER is measured by using a REMS Autosampler to ensure the integrity of the cell monolayers. Caco-2 cell monolayers with TEER values 300 Ω·cm^2 are used for transport experiments. To determine the Papp in the absorptive direction (A-B), solution of test compound (50 μM) in HBSS is added to the donor compartment (apical side), while HBSS solution with 4% BSA is added to the receiver compartment (basolateral side). The apical volume was 0.075 mL, and the basolateral volume is 0.25 mL. The incubation period is 120 min. at 37° C. in an atmosphere of 5% CO2. At the end of the incubation period, samples from the donor and receiver sides are removed and an equal volume of MeCN is added for protein precipitation. The supernatants are collected after centrifugation (3000 rpm, Allegra X-14R Centrifuge from Beckman Coulter, Indianapolis, IN) for LCMS analysis. The permeability value is determined according to the equation:
Papp(cm/s)=(F*VD)/(SA*MD),
where the flux rate (F, mass/time) is calc. from the slope of cumulative amounts of compound of interest on the receiver side, SA is the surface area of the cell membrane, VD is the donor volume, and MD is the initial amount of the solution in the donor chamber.
The symbol “+” indicates a Caco-2 value of ≤0.5, “++” indicates a Caco-2 value of >0.5 but ≤1; and “+++” indicates a Caco-2 value of >1. “NA” indicates Caco-2 value not available.

KRAS G12V = KRAS G12V (Homo sapiens, UniProt P01116, G12V); experiment: GDP-GTP exchange assay (KRAS G12V); format: biochemical; details: bodipy-GDP/GppNHp exchange with SOS1; 3 h incubation after GppNHp-SOS1;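 note: one dagger IC50 up to 100 nM and two daggers above 100 nM up to 1 μM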
Method: (§1) The inhibitor potency of the exemplified compounds was determined in a fluorescence based guanine nucleotide exchange assay, which measures the exchange of bodipy-GDP (fluorescently labeled GDP) for GppNHp (Non-hydrolyzable GTP analog) to generate the active state of KRAS in the presence of SOS1 (guanine nucleotide exchange factor). Inhibitors were serially diluted in DMSO and a volume of 0.1 μL was transferred to the wells of a black low volume 384-well plate. 5 μL/well volume of bodipy-loaded KRAS G12D diluted to 2.5 nM in assay buffer (25 mM Hepes pH 7.5, 50 mM NaCl, 10 mM MgCl2 and 0.01% Brij-35) was added to the plate and pre-incubated with inhibitor for 4 h at r.t. Appropriate controls (enzyme with no inhibitor or with a G12D inhibitor) were included on the plate. The exchange was initiated by the addition of a 5 μL/well volume containing 1 mM GppNHp and 300 nM SOS1 in assay buffer. The 10 μL/well reaction concentration of the bodipy-loaded KRAS G12D, GppNHp, and SOS1 were 2.5 nM, 500 μM, and 150 nM, respectively. The reaction plates were incubated at r.t. for 2 h, a time estimated for complete GDP-GTP exchange in the absence of inhibitor. For the KRAS G12V mutant, similar guanine nucleotide exchange assays were used with 2.5 nM as final concentration for the bodipy loaded KRAS proteins and 3 h incubation after adding GppNHp-SOS1 mixture. A cyclic peptide described to selectively bind G12D mutant (Sakamoto et al., BBRC 484.3 (2017), 605-611) or internal compounds with confirmed binding were used as positive controls in the assay plates. Fluorescence intensities were measured on a PheraStar plate reader instrument (BMG Labtech) with excitation at 485 nm and emission at 520 nm.
(§2) Either GraphPad prism or Genedata Screener SmartFit was used to analyze the data. The IC50 values were derived by fitting the data to a four parameter logistic equation producing a sigmoidal dose-response curve with a variable Hill coefficient.
(§3) The symbol “⬆” indicates IC50 100 nM, “⬆⬆” indicates IC50 >100 nM but ≤1 μM; and “⬆⬆⬆” indicates IC50 is >1 μM but ≤5 μM, “⬆⬆⬆⬆” indicates IC50 is >5 μM but ≤10 μM. “NA” indicates IC50 not available.

KRAS G12D = KRAS G12D (Homo sapiens, UniProt P01116, G12D); experiment: GDP-GTP exchange assay (KRAS G12D); format: biochemical; details: bodipy-GDP/GppNHp exchange with SOS1; 4 h pre-incubation, 2 h reaction;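 note: one dagger IC50 up to 100 nM and two daggers above 100 nM up to 1 μM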
Method: as §1, §2, §3

Sequence of KRAS G12D (P01116 1-188 isoform P01116-2 G12D): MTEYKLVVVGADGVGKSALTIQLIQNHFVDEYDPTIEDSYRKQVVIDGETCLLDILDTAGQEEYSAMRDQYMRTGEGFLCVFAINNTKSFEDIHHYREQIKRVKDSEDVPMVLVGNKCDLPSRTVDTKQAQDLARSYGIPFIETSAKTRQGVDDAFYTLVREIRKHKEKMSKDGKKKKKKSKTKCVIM
Sequence of KRAS G12V (P01116 1-188 isoform P01116-2 G12V): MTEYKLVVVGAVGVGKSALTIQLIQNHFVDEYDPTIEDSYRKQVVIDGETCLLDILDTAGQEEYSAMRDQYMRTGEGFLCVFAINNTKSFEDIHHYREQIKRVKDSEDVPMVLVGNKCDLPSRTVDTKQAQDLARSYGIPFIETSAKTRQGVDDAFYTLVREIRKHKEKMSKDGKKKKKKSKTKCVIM

| Papp A→B at 120 min, 50 μM [1] | G12V_exchange (KRAS_G12V exchange assay IC50) (KRAS G12V) | G12D_exchange (KRAS_G12D exchange assay IC50) (KRAS G12D) | Structure (SMILES) |
| --- | --- | --- | --- |
| ≤ 0.5 ×10⁻⁶ cm/s | † | †† | Cc1nc2c(F)c(-c3cccc(Cl)c3Cl)c(CCC#N)cc2c2c1cc([C@H]1[C@H]3C[C@H](CN(c4ccccc4)C3)N1C(=O)C1CC1)n2[C@H]1[C@H]2CN[C@@H]1C2 (atropisomer, axis not shown; (Ra)) [Example 1, 3-((Ra)-1-((1R,4R,5S)-2-Azabicyclo[2.1.1]hexan-5-yl)-2-((1 S,5R,7R)-6-(cyclopropanecarbonyl)-3-phenyl-3,6-diazabicyclo[3.2.1]octan-7-yl)-7-(2,3-dichlorophenyl)-6-fluoro-4-methyl-1H-pyrrolo[3,2-c]quinolin-8-yl)propanenitrile] |
| ≤ 0.5 ×10⁻⁶ cm/s | † | † | Cc1nc2c(F)c(-c3cccc(Cl)c3Cl)c(CCC#N)cc2c2c1cc([C@H]1[C@H]3C[C@H](CN(c4ccccc4F)C3)N1C(=O)C1CC1)n2[C@H]1[C@H]2CN[C@@H]1C2 (atropisomer, axis not shown; (Ra)) [Example 2, 3-((Ra)-1-((1R,4R,5S)-2-Azabicyclo[2.1.1]hexan-5-yl)-2-((1 S,5R,7R)-6-(cyclopropanecarbonyl)-3-(2-fluorophenyl)-3,6-diazabicyclo[3.2.1]octan-7-yl)-7-(2,3-dichlorophenyl)-6-fluoro-4-methyl-1H-pyrrolo[3,2-c]quinolin-8-yl)propanenitrile] |
| ≤ 0.5 ×10⁻⁶ cm/s | † | †† | Cc1nc2c(F)c(-c3cccc(Cl)c3Cl)c(CCC#N)cc2c2c1cc([C@H]1[C@H]3C[C@H](CN(c4ccc(OC(F)(F)F)cc4)C3)N1C(=O)C1CC1)n2[C@H]1[C@H]2CN[C@@H]1C2 (atropisomer, axis not shown; (Ra)) [Example 3, 3-((Ra)-1-((1R,4R,5S)-2-azabicyclo[2.1.1]hexan-5-yl)-2-((1S,5R,7R)-6-(cyclopropanecarbonyl)-3-(4-(trifluoromethoxy)phenyl)-3,6-diazabicyclo[3.2.1]octan-7-yl)-7-(2,3-dichlorophenyl)-6-fluoro-4-methyl-1H-pyrrolo[3,2-c]quinolin-8-yl)propanenitrile] |
| ≤ 0.5 ×10⁻⁶ cm/s | † | † | Cc1nc2c(F)c(-c3cccc(Cl)c3Cl)c(CCC#N)cc2c2c1cc([C@H]1[C@H]3C[C@H](CN(c4ccc(C#N)cc4)C3)N1C(=O)C1CC1)n2[C@H]1[C@H]2CN[C@@H]1C2 (atropisomer, axis not shown; (Ra)) [Example 4, 4-((1S,5R,7R)-7-((Ra)-1-((1R,4R,5S)-2-azabicyclo[2.1.1]hexan-5-yl)-8-(2-cyanoethyl)-7-(2,3-dichlorophenyl)-6-fluoro-4-methyl-1H-pyrrolo[3,2-c]quinolin-2-yl)-6-(cyclopropanecarbonyl)-3,6-diazabicyclo[3.2.1]octan-3-yl)benzonitrile] |
| ≤ 0.5 ×10⁻⁶ cm/s | † | † | Cc1nc2c(F)c(-c3cccc(Cl)c3Cl)c(CCC#N)cc2c2c1cc([C@H]1[C@H]3C[C@H](CN(c4ccc(C(F)(F)F)nc4)C3)N1C(=O)C1CC1)n2[C@H]1[C@H]2CN[C@@H]1C2 (atropisomer, axis not shown; (Ra)) [Example 5, 3-((Ra)-1-((1R,4R,5S)-2-azabicyclo[2.1.1]hexan-5-yl)-2-((1S,5R,7R)-6-(cyclopropanecarbonyl)-3-(6-(trifluoromethyl)pyridin-3-yl)-3,6-diazabicyclo[3.2.1]octan-7-yl)-7-(2,3-dichlorophenyl)-6-fluoro-4-methyl-1H-pyrrolo[3,2-c]quinolin-8-yl)propanenitrile] |
| > 1 ×10⁻⁶ cm/s | † | – | COC(=O)N1[C@@H]2C[C@@H](CN(c3nccnc3OC)C2)[C@@H]1c1cc2c(C)nc3c(F)c(-c4cccc(Cl)c4Cl)c(CCC#N)cc3c2n1[C@H]1[C@H]2CN[C@@H]1C2 (atropisomer, axis not shown; (Ra)) [Example 125, Methyl (1 S,5R,7R)-7-((Ra)-1-((1R,4R,5S)-2-azabicyclo[2.1.1]hexan-5-yl)-8-(2-cyanoethyl)-7-(2,3-dichlorophenyl)-6-fluoro-4-methyl-1H-pyrrolo[3,2-c]quinolin-2-yl)-3-(3-methoxypyrazin-2-yl)-3,6-diazabicyclo[3.2.1]octane-6-carboxylate] |
| ≤ 0.5 ×10⁻⁶ cm/s | † | – | COC(=O)N1[C@@H]2C[C@@H](CN(c3ncc(OCC4CC4)cn3)C2)[C@@H]1c1cc2c(C)nc3c(F)c(-c4cccc(Cl)c4Cl)c(CCC#N)cc3c2n1[C@H]1[C@H]2CN[C@@H]1C2 (atropisomer, axis not shown; (Ra)) [Example 126, Methyl (1 S,5R,7R)-7-((Ra)-1-((1R,4R,5S)-2-azabicyclo[2.1.1]hexan-5-yl)-8-(2-cyanoethyl)-7-(2,3-dichlorophenyl)-6-fluoro-4-methyl-1H-pyrrolo[3,2-c]quinolin-2-yl)-3-(5-(cyclopropylmethoxy)pyrimidin-2-yl)-3,6-diazabicyclo[3.2.1]octane-6-carboxylate] |
| ≤ 0.5 ×10⁻⁶ cm/s | † | – | COC(=O)N1[C@@H]2C[C@@H](CN(c3cnc(C#N)cn3)C2)[C@@H]1c1cc2c(C)nc3c(F)c(-c4cccc(Cl)c4Cl)c(CCC#N)cc3c2n1[C@H]1[C@H]2CN[C@@H]1C2 (atropisomer, axis not shown; (Ra)) [Example 127, Methyl (1 S,5R,7R)-7-((Ra)-1-((1R,4R,5S)-2-azabicyclo[2.1.1]hexan-5-yl)-8-(2-cyanoethyl)-7-(2,3-dichlorophenyl)-6-fluoro-4-methyl-1H-pyrrolo[3,2-c]quinolin-2-yl)-3-(5-cyanopyrazin-2-yl)-3,6-diazabicyclo[3.2.1]octane-6-carboxylate] |
| ≤ 0.5 ×10⁻⁶ cm/s | † | – | Cc1nc2c(F)c(-c3cccc(Cl)c3Cl)c(CCC#N)cc2c2c1cc([C@H]1[C@H]3C[C@H](CN(c4cc(C(C)(F)F)ncn4)C3)N1C(=O)C1(F)CC1)n2[C@H]1[C@H]2CN[C@@H]1C2 (atropisomer, axis not shown; (Ra)) [Example 128, 3-((Ra)-1-((1R,4R,5S)-2-azabicyclo[2.1.1]hexan-5-yl)-7-(2,3-dichlorophenyl)-2-((1S,5R,7R)-3-(6-(1,1-difluoroethyl)pyrimidin-4-yl)-6-(1-fluorocyclopropane-1-carbonyl)-3,6-diazabicyclo[3.2.1]octan-7-yl)-6-fluoro-4-methyl-1H-pyrrolo[3,2-c]quinolin-8-yl)propanenitrile] |
